These results are taken from US5891896A, “Tri-substituted phenyl derivatives useful as PDE IV inhibitors” (Celltech Therapeutics Ltd., priority 1995, dated 1999).

Structures can show the parent of a compound that is named as a salt.

One data set concerns the target T1, human PDE IVA (Homo sapiens, UniProt P27815).
T1 construct: made in house; host or cells: yeast (inducible vector)
The experiment in a line: Isolated recombinant human PDE IVA enzyme, inhibition of phosphodiesterase activity ([3H]-cAMP). It is filed as biochemical. To be noted: 0.1 μM [3H]-cAMP, pH 7.5, 30° C. From the text:
1. Isolated Recombinant Human PDE IVA Enzyme
A gene encoding human PDE IV has been cloned from human monocytes (Livi, et al., 1990, Molecular and Cellular Biology, 10, 2678). Using similar procedures we have cloned human PDE IV genes from a number of sources including eosinophils, neutrophils, lymphocytes, monocytes, brain and neuronal tissues. These genes have been transfected into yeast using an inducible vector and various recombinant proteins have been expressed which have the biochemical characteristics of PDE IV (Beavo and Reifsnyder, 1990, TIPS, 11, 150). These recombinant enzymes, particularly the human eosinophil recombinant PDE IVA, have been used as the basis of a screen for potent, selective PDE IV inhibitors.
The enzymes were purified to isoenzyme homogeneity using standard chromatographic techniques.
Phosphodiesterase activity was assayed as follows. The reaction was conducted in 150 μl of standard mixture containing (final concentrations): 50 mM 2-[[tris(hydroxymethyl)methyl]amino]-1-ethanesulphonic acid (TES) --NaOH buffer (pH 7.5), 10 mM MgCl2, 0.1 μM [^3 H]-cAMP and vehicle or various concentrations of the test compounds. […] Recovery of [^3 H]-5'AMP was determined using the [^14 C]-5'AMP and all assays were conducted in the linear range of the reaction. Results were expressed as IC50 values.

The nature of data set [1]: Rat hepatocyte metabolism (compound remaining, mass spectroscopy). The data set is classed as in vitro ADME. The note with it: rat hepatocytes, read-out: compound remaining at the end of the period. Here is the method: (§1) 2. Rat Hepatocyte Metabolism
(§2) The quantity of compound remaining after a fixed period of time was then determined using mass spectroscopy.

In the next data set the test system is rat hepatocytes. Described as above. It is filed as in vitro ADME. On the procedure: as §1, §2

T1 sequence (P27815 whole entry): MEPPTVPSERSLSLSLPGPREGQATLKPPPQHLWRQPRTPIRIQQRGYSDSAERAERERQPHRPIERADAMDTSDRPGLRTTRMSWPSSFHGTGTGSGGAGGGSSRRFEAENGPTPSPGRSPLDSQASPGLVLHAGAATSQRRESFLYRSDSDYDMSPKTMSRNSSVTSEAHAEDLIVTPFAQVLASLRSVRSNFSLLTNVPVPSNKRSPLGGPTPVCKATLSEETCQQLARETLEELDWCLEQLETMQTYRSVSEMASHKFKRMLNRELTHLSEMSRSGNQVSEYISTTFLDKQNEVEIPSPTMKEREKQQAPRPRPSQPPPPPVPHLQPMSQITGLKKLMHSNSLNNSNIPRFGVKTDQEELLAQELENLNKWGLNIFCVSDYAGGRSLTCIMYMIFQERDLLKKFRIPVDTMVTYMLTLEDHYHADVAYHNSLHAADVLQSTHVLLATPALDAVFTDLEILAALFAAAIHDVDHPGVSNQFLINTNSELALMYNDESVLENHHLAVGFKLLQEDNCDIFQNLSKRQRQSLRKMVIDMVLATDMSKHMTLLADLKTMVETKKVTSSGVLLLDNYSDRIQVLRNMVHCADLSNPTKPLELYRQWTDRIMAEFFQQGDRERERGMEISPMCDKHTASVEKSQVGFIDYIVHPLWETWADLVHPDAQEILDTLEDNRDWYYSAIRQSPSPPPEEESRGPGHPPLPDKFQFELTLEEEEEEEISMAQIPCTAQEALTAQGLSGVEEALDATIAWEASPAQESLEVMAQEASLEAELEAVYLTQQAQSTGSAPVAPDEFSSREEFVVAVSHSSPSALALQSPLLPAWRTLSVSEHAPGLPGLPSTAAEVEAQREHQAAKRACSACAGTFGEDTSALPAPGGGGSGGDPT

Take `COc1ccc([C@H](Cc2ccncc2)c2cccc(NS(=O)(=O)c3ccccc3)c2)cc1OC1Cc2ccccc2C1` [Example 2, hydrochloride]: the half-maximal inhibitory concentration (IC50) on human PDE IVA was 0.002 µM. The share remaining at 3 h in data set [1] was no less than 80%. In the data set on rat hepatocytes, the “metabolism after 3 h (in words)” value is recorded as “substantially unmetabolised”.

“(R)-N-[4-{1-(3-(2-Indanyloxy)-4-methoxyphenyl)-2-(4-pyridyl)ethyl}phenyl]-N'-ethylurea hydrochloride [Example 3]”: at human PDE IVA, the concentration for half-maximal inhibition (IC50) turned out to be 0.034 µM. Further, the “metabolism after 3 h (in words)” value in the data set on rat hepatocytes is “substantially unmetabolised”. Also, the “compound remaining at the end of the period” value in the data set with rat hepatocytes (3 h) was no less than 80%.

Broadly, the IC50 is the point on the concentration scale where inhibition reaches its midpoint. Broadly, the share remaining is what is left of the initial amount, in per cent.
